A word on the IC50: it is the concentration that gives 50% inhibition. The EC50 is the concentration needed to bring the measured effect to its halfway point.

Structures are written as SMILES.

We go through 4 compounds from patent publication US8299073B2, “P38 MAP kinase inhibitors” (Respivert Ltd., priority 2008, dated 2012).

Data set [1] has as its target T1, p38 MAPK alpha (MAPK14: Invitrogen) (Homo sapiens, UniProt Q16539).
T1 construct: purchased Invitrogen
The data set is described as follows: Enzyme inhibition assay (FRET, Z-LYTE), p38 MAPK alpha, via activation of MAPKAP-K2. The data set is classed as biochemical. To be noted: read-out: IC50 values p38α enzyme.

Data set [2] deals with T2, recombinant, phosphorylated p38 MAPK gamma (MAPK12:Millipore) (Homo sapiens, UniProt P53778).
T2 construct: purchased Millipore
T2 sequence (P53778 1-367): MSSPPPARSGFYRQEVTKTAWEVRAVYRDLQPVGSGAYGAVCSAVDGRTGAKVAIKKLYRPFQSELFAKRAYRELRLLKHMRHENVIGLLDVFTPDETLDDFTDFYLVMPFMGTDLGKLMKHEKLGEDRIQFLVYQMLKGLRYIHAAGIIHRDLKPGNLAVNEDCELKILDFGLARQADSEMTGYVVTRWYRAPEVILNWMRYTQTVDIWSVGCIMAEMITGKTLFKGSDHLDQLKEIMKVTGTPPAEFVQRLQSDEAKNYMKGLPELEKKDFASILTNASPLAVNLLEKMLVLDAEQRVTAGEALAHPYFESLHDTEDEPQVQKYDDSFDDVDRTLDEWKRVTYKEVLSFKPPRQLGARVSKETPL
The experiment in a line: Enzyme inhibition assay (FRET, Z-LYTE), p38 MAPK gamma. The data set is classed as biochemical. To be noted: read-out: IC50 values P38γ enzyme.

For data set [3], the system named is LPS-induced TNFα release in differentiated U937 cells. The data set is described as follows: LPS-induced TNF alpha release in differentiated U937 cells. The format is cell-based. To be noted: Homo sapiens; read-out: R-EC50 values d-U937 cells.
Data set [4] has as its system LPS-induced TNFα release in THP-1 cells. The experiment in a line: LPS-induced TNF alpha release in THP-1 cells. The data set is classed as cell-based. To be noted: Homo sapiens, THP-1; LPS-induced TNFα release; read-out: IC50 values THP-1 cells.
The subject of data set [5] is Differentiated U937 cells. The experiment in a line: MTT assay (loss of cell viability). The data set is classed as cell-based, human. To be noted: loss of cell viability, 10 ug/ml. Background: Tetrazolium dyes change colour on reduction, which living cells bring about.
Description: Differentiated U937 cells were pre-incubated with compound for 4 hrs in 5% FCS or 10% FCS for 24 hrs and 72 hr. The supernatant was replaced with 200 ul of new media and 10 μL of MTT stock solution (5 mg/mL) added to each well. After 1 hr incubation, the media were removed, 200 μL of DMSO added to each well and the plates were shaken lightly for 1 hr prior to reading the absorbance at 550 nm.
The percentage loss of cell viability was calculated for each well relative to vehicle (0.5% DMSO)-treatment. Consequently an apparent increase in cell viability for drug treatment relative to vehicle is tabulated as a negative percentage.
Data set [6] deals with neutrophil and macrophage accumulation into airways. The experiment in a line: Cigarette smoke model. The data set is classed as in vivo, A/J mice. To be noted: 50 μg/ml (35 μl, bid, in); cigarette smoke exposed mice. The protocol:
A/J mice (males, 5 weeks old) were exposed to cigarette smoke (4% cigarette smoke, diluted with compressed air) for 30 min/day for 11 days using a Tobacco Smoke Inhalation Experiment System for small animals (Model SIS-CS; Sibata Scientific Technology, Tokyo, Japan). Test substances were given intra-nasally (35 μl of solution in 50% DMSO/PBS) and therapeutically twice daily for 3 days after the final cigarette smoke exposure. Twelve hours after the last dosing, animals were anesthetized, the trachea cannulated and bronchoalveolar lavage fluid (BALF) was collected. […] The results are shown in FIG. 3 for activated alveolar macrophages and in FIG. 4 for neutrophils. Data for cell numbers are shown as the mean±SEM. The cigarette smoke model used for this study is reported as a corticosteroid refractory system, ([…]. et al., (2008); J. Pharmacol. Exp.

Data set [7] has as its system ovalbumin-mediated lung function changes (sGaw). The data set is described as follows: Ovalbumin challenge/parainfluenza infection model. The format is in vivo, Dunkin-Hartley guinea-pigs. To be noted: nebulised, 1.5 mg per day; sensitized animals treated with PIV3 medium.

T1 sequence (Q16539 whole entry): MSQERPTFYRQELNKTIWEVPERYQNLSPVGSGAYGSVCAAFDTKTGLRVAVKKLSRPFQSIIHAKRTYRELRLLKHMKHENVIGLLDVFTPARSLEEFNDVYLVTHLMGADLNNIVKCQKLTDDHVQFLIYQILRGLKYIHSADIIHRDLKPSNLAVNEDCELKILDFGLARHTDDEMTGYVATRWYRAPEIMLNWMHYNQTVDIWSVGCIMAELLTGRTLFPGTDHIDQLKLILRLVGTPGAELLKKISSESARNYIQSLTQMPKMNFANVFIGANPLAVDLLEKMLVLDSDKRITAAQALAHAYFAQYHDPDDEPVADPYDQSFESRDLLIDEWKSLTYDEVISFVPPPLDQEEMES

`COCC(=O)Nc1cc(C(C)(C)COc2ccc(NC(=O)Nc3cc(C(C)(C)C)nn3-c3ccc(C)cc3)c3ccccc23)ccn1` [Example 48, N-(4-(1-(4-(3-(3-tert-Butyl-1-p-tolyl-1-pyrazol-5-yl)ureido)naphthalen-1-yloxy)-2-methylpropan-2-yl)pyridin-2-yl)-2-methoxyacetamide]: the IC50 in data set [1] was under 500 nM; in data set [2] it was over 5000 nM; in data set [4], under 500 nM. In data set [3], the EC50 was under 500 nM. In addition, the “MTT 4 hr” value in data set [5] is recorded as “− (− <30%)”. Further, the “MTT 24 hr” value in data set [5] was “− (− <30%)”.
Turning to `COCC(=O)Nc1cc(COc2ccc(NC(=O)Nc3cc(C(C)(C)C)nn3-c3ccc(CO)cc3)c3ccccc23)ccn1` [Example 49, N-(4-((4-(3-(3-tert-Butyl-1-(4-(hydroxymethyl)phenyl)-1H-pyrazol-5-yl)ureido)naphthalen-1-yloxy)methyl)pyridin-2-yl)-2-methoxyacetamide], the IC50 in data set [1] is under 10 nM; in data set [2], under 500 nM; in data set [4] it was under 500 nM. For the same compound, the EC50 in data set [3] is under 10 nM. Moreover, in data set [5], the “MTT 4 hr” value is recorded as “− (− <30%)”. Also, in data set [5], the “MTT 24 hr” value was “+ (+ >30% at 10 ug/ml)”.
On to `COCC(=O)Nc1nccc(COc2ccc(NC(=O)Nc3cc(C(C)(C)C)nn3-c3ccc(C)cc3)c3ccccc23)n1` [Example 50, N-(4-((4-(3-(3-tert-Butyl-1-p-tolyl-1H-pyrazol-5-yl)ureido)naphthalen-1-yloxy)methyl)pyrimidin-2-yl)-2-methoxyacetamide], for which the IC50 in data set [1] is under 10 nM; in data set [2] it was over 5000 nM; in data set [4] it was under 500 nM. Moreover, in data set [3], the EC50 was under 10 nM. Moreover, the “MTT 4 hr” value in data set [5] is listed as “− (− <30%)”. Also, the “MTT 24 hr” value in data set [5] was “− (− <30%)”.
As to `CCC(=O)O[C@]1(C(=O)SCF)[C@H](C)C[C@H]2[C@@H]3C[C@H](F)C4=CC(=O)C=C[C@]4(C)[C@@]3(F)[C@@H](O)C[C@@]21C` [fluticasone propionate], the “inhibition of neutrophil or macrophage accumulation into airways” value in data set [6] is “did not inhibit”. Besides, the “effect on ovalbumin-mediated lung function changes” value in data set [7] was “inhibited”.
